≈ marks a conversion by molar mass, not a printed value. Where a SMILES comes first, the peptide text is derived from it. Bridges are numbered along the chain shown (N, C = ends). Roman numbers before positions name the chains, in order. [ ]: non-standard residue; d: D form. Tle = CC(C)(C)[C@H](N)C(=O)O; d(hSer) = N[C@H](CCO)C(=O)O; Hiv = CC(C)[C@H](O)C(=O)O; dDab = NCC[C@@H](N)C(=O)O; hSer = N[C@@H](CCO)C(=O)O; Orn = NCCC[C@H](N)C(=O)O; Dab = NCC[C@H](N)C(=O)O; Dap = NC[C@H](N)C(=O)O
What was measured:
Format in all cases: cell-based
[1] = tested on: Enterobacter cloacae 848840; conditions: 848840
Method: (§1) The in vitro antimicrobial activities of the peptides were determined in 96-well plates (Greiner, polystyrene) by the standard CLSI broth microdilution method (Clinical and Laboratory Standards Institute 2014. Performance standards for antimicrobial susceptibility testing, 24th informational supplement. Approved standard CLSI M100-S24; Clinical and Laboratory Standards Institute, Wayne, Pa.). The following microorganisms were used to determine antibiotic activity of the peptides: Escherichia coli ATCC 25922, Klebsiella pneumoniae SSI #3010^a), Acinetobacter baumannii DSM 30008, Pseudomonas aeruginosa ATCC 27853 and the clinical isolates Escherichia coli 926415^b), Klebsiella pneumoniae 968733^b), Acinetobacter baumannii 872842^b), Enterobacter cloacae 848840^b) and Escherichia coli MCR-1 Af45^c). Before preparation of inocula, Escherichia coli MCR-1 Af45 was subcultured on Mueller-Hinton II (MH-cation adjusted) agar containing 2 μg/mL colistin. ^a) Obtained from Statens Serum Institut (SSI), Copenhagen, Denmark^b) Obtained from International Health Management Associates, Inc. (IHMA Europe Sàrl), Epalinges, Switzerland^c) Obtained from Prof. Patrice Nordmann, University of Fribourg, Fribourg, Switzerland
(§2) Inocula of the microorganisms were diluted into Mueller-Hinton II (MH-cation adjusted) broth and compared with a 0.5 McFarland standard to give appr. 10^6 colony forming units (CFU)/mL. Aliquots (90 μL) of inoculum were added to 10 μL of MH-II broth+P-80 (Polysorbate 80, 0.002% final concentration, v/v) containing the peptide in serial two-fold dilutions. Antimicrobial activities of the peptides were expressed as the minimal inhibitory concentration (MIC) in μg/mL at which no visible growth was observed after 18-20 hours of incubation at 35° C.

[2] = tested on: Acinetobacter baumannii DSM 30008; conditions: DSM 30008
Method: as §1, §2

[3] = tested on: Escherichia coli ATCC 25922; conditions: ATCC 25922
Method: as §1, §2

[4] = tested on: Klebsiella pneumoniae 968733; conditions: 968733
Method: as §1, §2

[5] = tested on: Klebsiella pneumoniae SSI #3010; conditions: SSI #3010
Method: as §1, §2

Escherichia coli 926415 = conditions: 926415
Method: as §1, §2

[6] = tested on: Pseudomonas aeruginosa ATCC 27853; conditions: ATCC 27853
Method: as §1, §2

[7] = tested on: Acinetobacter baumannii 872842; conditions: 872842
Method: as §1, §2

[8] = tested on: human red blood cells (hRBC); test: Hemolysis; conditions: red cells of human, 1 h, 200
Outline: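 hRBC washed 4× in PBS; 200 μg/mL peptide + 20% (v/v) hRBC, 1 h, 37° C, 300 rpm. Spin, supernatant ~7.5-fold diluted, OD540 blank corrected. % hemolysis = OD540 peptide / OD540 Triton X-100 × 100.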

Compound | MIC [1] [µg/mL] | MIC [2] [µg/mL] | MIC [3] [µg/mL] | MIC [4] [µg/mL] | MIC [5] [µg/mL] | MIC (Escherichia coli 926415) [µg/mL] | MIC [6] [µg/mL] | MIC [7] [µg/mL] | Hemolysis at 200 μg/mL [8] [%]
CC(=O)N[C@H](C(=O)N[C@H]1CCCNC(=O)[C@@H]([C@H](C)O)NC(=O)[C@H](C(C)(C)C)NC(=O)[C@H](CO)NC(=O)[C@H](Cc2c[nH]c3ccccc23)NC(=O)[C@H](CCO)NC(=O)[C@@H](CCN)NC(=O)[C@H](CCC(=O)N[C@@H](CCN)C(=O)N[C@H](C(=O)N[C@@H](CN)C(=O)N[C@H]2CCNC(=O)[C@H]([C@@H](C)O)NC(=O)[C@H](CCN)NC(=O)[C@H](CCN)NC(=O)[C@H](CC(C)C)NC(=O)[C@@H](CC(C)C)NC(=O)[C@H](CCN)NC2=O)[C@@H](C)O)NC(=O)[C@H](CO)NC(=O)[C@H](Cc2ccc(O)cc2)NC1=O)C(C)C [Ex. 18] (I: Ac-V[Orn]YSE[dDab][hSer]WS[Tle][dT] / II: [Dab]T[Dap][Dab][Dab][dL]L[Dab][Dab]T; lactam I:2-I:C, II:4-II:C; amide I:5-II:N) | 0.125 (≈ 0.0539 µM) | 0.0625 (≈ 0.0269 µM) | 0.0625 (≈ 0.0269 µM) | 0.5 (≈ 0.215 µM) | 0.125 (≈ 0.0539 µM) | 0.25 (≈ 0.108 µM) | 0.25 (≈ 0.108 µM) | 0.25 (≈ 0.108 µM) | 1
CC(=O)N[C@H](C(=O)N[C@H]1CCCNC(=O)[C@@H](CCC(N)=O)NC(=O)[C@H](C(C)(C)C)NC(=O)[C@H](CO)NC(=O)[C@H](Cc2c[nH]c3ccccc23)NC(=O)[C@H](CCO)NC(=O)[C@@H](CCN)NC(=O)[C@H](CCC(=O)N[C@@H](CCN)C(=O)N[C@H](C(=O)N[C@@H](CN)C(=O)N[C@H]2CCNC(=O)[C@H]([C@@H](C)O)NC(=O)[C@H](CCN)NC(=O)[C@H](CCN)NC(=O)[C@H](CC(C)C)NC(=O)[C@@H](CC(C)C)NC(=O)[C@H](CCN)NC2=O)[C@@H](C)O)NC(=O)[C@H](CO)NC(=O)[C@H](Cc2ccc(O)cc2)NC1=O)C(C)C [Ex. 20] (I: Ac-V[Orn]YSE[dDab][hSer]WS[Tle][dQ] / II: [Dab]T[Dap][Dab][Dab][dL]L[Dab][Dab]T; lactam I:2-I:C, II:4-II:C; amide I:5-II:N) | 0.25 (≈ 0.106 µM) | 0.125 (≈ 0.0532 µM) | 0.125 (≈ 0.0532 µM) | 2 (≈ 0.852 µM) | 0.125 (≈ 0.0532 µM) | 1 (≈ 0.426 µM) | 0.25 (≈ 0.106 µM) | 0.5 (≈ 0.213 µM) | <1
CC(=O)N[C@H](C(=O)N[C@H]1CCCNC(=O)[C@@H](CCC(=O)O)NC(=O)[C@H](C(C)(C)C)NC(=O)[C@H](CO)NC(=O)[C@H](Cc2c[nH]c3ccccc23)NC(=O)[C@H](CCO)NC(=O)[C@@H](CCN)NC(=O)[C@H](CCC(=O)N[C@@H](CCN)C(=O)N[C@H](C(=O)N[C@@H](CN)C(=O)N[C@H]2CCNC(=O)[C@H]([C@@H](C)O)NC(=O)[C@H](CCN)NC(=O)[C@H](CCN)NC(=O)[C@H](CC(C)C)NC(=O)[C@@H](CC(C)C)NC(=O)[C@H](CCN)NC2=O)[C@@H](C)O)NC(=O)[C@H](CO)NC(=O)[C@H](Cc2ccc(O)cc2)NC1=O)C(C)C [Ex. 21] (I: Ac-V[Orn]YSE[dDab][hSer]WS[Tle][dE] / II: [Dab]T[Dap][Dab][Dab][dL]L[Dab][Dab]T; lactam I:2-I:C, II:4-II:C; amide I:5-II:N) | 0.5 (≈ 0.213 µM) | 0.5 (≈ 0.213 µM) | 0.25 (≈ 0.106 µM) | 8 (≈ 3.41 µM) | 0.5 (≈ 0.213 µM) | 8 (≈ 3.41 µM) | 0.5 (≈ 0.213 µM) | 2 (≈ 0.852 µM) | <1
CC(=O)N[C@H](C(=O)N[C@H]1CCCNC(=O)[C@@H](CCO)NC(=O)[C@H](C(C)(C)C)NC(=O)[C@H](CO)NC(=O)[C@H](Cc2c[nH]c3ccccc23)NC(=O)[C@H](CCO)NC(=O)[C@@H](CCN)NC(=O)[C@H](CCC(=O)N[C@@H](CCN)C(=O)N[C@H](C(=O)N[C@@H](CN)C(=O)N[C@H]2CCNC(=O)[C@H]([C@@H](C)O)NC(=O)[C@H](CCN)NC(=O)[C@H](CCN)NC(=O)[C@H](CC(C)C)NC(=O)[C@@H](CC(C)C)NC(=O)[C@H](CCN)NC2=O)[C@@H](C)O)NC(=O)[C@H](CO)NC(=O)[C@H](Cc2ccc(O)cc2)NC1=O)C(C)C [Ex. 22] (I: Ac-V[Orn]YSE[dDab][hSer]WS[Tle][d(hSer)] / II: [Dab]T[Dap][Dab][Dab][dL]L[Dab][Dab]T; lactam I:2-I:C, II:4-II:C; amide I:5-II:N) | 0.125 (≈ 0.0539 µM) | 0.0625 (≈ 0.0269 µM) | 0.0625 (≈ 0.0269 µM) | 1 (≈ 0.431 µM) | 0.125 (≈ 0.0539 µM) | 0.5 (≈ 0.215 µM) | 0.5 (≈ 0.215 µM) | 0.25 (≈ 0.108 µM) | <1
CC(=O)N[C@H](C(=O)N[C@H]1CCCNC(=O)[C@@H]([C@H](C)O)NC(=O)[C@H](C(C)(C)C)NC(=O)[C@H](CO)NC(=O)[C@H](Cc2c[nH]c3ccccc23)NC(=O)[C@H](CO)NC(=O)[C@@H](CCN)NC(=O)[C@H](CCC(=O)N[C@@H](CCN)C(=O)N[C@H](C(=O)N[C@@H](CN)C(=O)N[C@H]2CCNC(=O)[C@H]([C@@H](C)O)NC(=O)[C@H](CCN)NC(=O)[C@H](CCN)NC(=O)[C@H](CC(C)C)NC(=O)[C@@H](CC(C)C)NC(=O)[C@H](CCN)NC2=O)[C@@H](C)O)NC(=O)[C@H](CO)NC(=O)[C@H](Cc2ccc(O)cc2)NC1=O)C(C)C [Ex. 23] (I: Ac-V[Orn]YSE[dDab]SWS[Tle][dT] / II: [Dab]T[Dap][Dab][Dab][dL]L[Dab][Dab]T; lactam I:2-I:C, II:4-II:C; amide I:5-II:N) | 0.125 (≈ 0.0542 µM) | 0.0625 (≈ 0.0271 µM) | 0.0625 (≈ 0.0271 µM) | 0.5 (≈ 0.217 µM) | 0.125 (≈ 0.0542 µM) | 0.5 (≈ 0.217 µM) | 0.25 (≈ 0.108 µM) | 0.25 (≈ 0.108 µM) | <1
CC(C)C[C@@H]1NC(=O)[C@@H](CC(C)C)NC(=O)[C@H](CCN)NC(=O)[C@@H](NC(=O)[C@H](CN)NC(=O)[C@@H](NC(=O)[C@H](CCN)NC(=O)CC[C@@H]2NC(=O)[C@H](CO)NC(=O)[C@H](Cc3ccc(O)cc3)NC(=O)[C@@H](NC(=O)[C@@H](O)C(C)C)CCCNC(=O)[C@@H]([C@H](C)O)NC(=O)[C@H](C(C)(C)C)NC(=O)[C@H](CO)NC(=O)[C@H](Cc3c[nH]c4ccccc34)NC(=O)[C@H](CCO)NC(=O)[C@@H](CCN)NC2=O)[C@@H](C)O)CCNC(=O)[C@H]([C@@H](C)O)NC(=O)[C@H](CCN)NC(=O)[C@H](CCN)NC1=O [Ex. 24] (I: H-[Hiv][Orn]YSE[dDab][hSer]WS[Tle][dT] / II: [Dab]T[Dap][Dab][Dab][dL]L[Dab][Dab]T; lactam I:2-I:C, II:4-II:C; amide I:5-II:N) | 0.25 (≈ 0.11 µM) | 0.125 (≈ 0.0548 µM) | 0.125 (≈ 0.0548 µM) | 0.5 (≈ 0.219 µM) | 0.125 (≈ 0.0548 µM) | 2 (≈ 0.877 µM) | 0.25 (≈ 0.11 µM) | 1 (≈ 0.439 µM) | <1
CC(=O)N[C@H](C(=O)N[C@H]1CCCNC(=O)[C@@H]([C@H](C)O)NC(=O)[C@H](C(C)(C)C)NC(=O)[C@H](CO)NC(=O)[C@H](Cc2c[nH]c3ccccc23)NC(=O)[C@H](CCN)NC(=O)[C@@H](CCN)NC(=O)[C@H](CCC(=O)N[C@@H](CCN)C(=O)N[C@H](C(=O)N[C@@H](CN)C(=O)N[C@H]2CCNC(=O)[C@H]([C@@H](C)O)NC(=O)[C@H](CCN)NC(=O)[C@H](CCN)NC(=O)[C@H](CC(C)C)NC(=O)[C@@H](CC(C)C)NC(=O)[C@H](CCN)NC2=O)[C@@H](C)O)NC(=O)[C@H](CO)NC(=O)[C@H](Cc2ccc(O)cc2)NC1=O)C(C)C [Ex. 25] (I: Ac-V[Orn]YSE[dDab][Dab]WS[Tle][dT] / II: [Dab]T[Dap][Dab][Dab][dL]L[Dab][Dab]T; lactam I:2-I:C, II:4-II:C; amide I:5-II:N) | 0.125 (≈ 0.0539 µM) | 0.0625 (≈ 0.0269 µM) | 0.0625 (≈ 0.0269 µM) | 0.25 (≈ 0.108 µM) | 0.125 (≈ 0.0539 µM) | 0.25 (≈ 0.108 µM) | 0.25 (≈ 0.108 µM) | 0.25 (≈ 0.108 µM) | <1

Reference: US11629171B2, “Beta-hairpin peptidomimetics” (POLYPHOR AG, priority 2017, dated 2023)
